Assay results from US7799821B2, “Therapeutic compounds” (Allergan, Inc., priority 2004, dated 2010).
One block for each compound: values may come before it.

Key:
Format in all cases: cell-based
hIP = molecular target: T1, hIP (Homo sapiens, UniProt P43119); experiment: FLIPR calcium signal, hIP; settings: for EC50: read-out: Other Receptors EC50 hIP
T1 construct: expressed in transfected cells; host or cells: HEK-293(EBNA)
Method: (§1) HEK-293(EBNA) cells, stably expressing one type or subtype of recombinant human prostaglandin receptors (prostaglandin receptors expressed: hDP/Gqs5; hEP1; hEP2/Gqs5; hEP3A/Gqi5; hEP4/Gqs5; hFP; hIP; hTP), were cultured in 100 mm culture dishes in high-glucose DMEM medium containing 10% fetal bovine serum, 2 mM 1-glutamine, 250 μg/ml geneticin (G418) and 200 μg/ml hygromycin B as selection markers, and 100 units/ml penicillin G, 100 μg/ml streptomycin and 0.25 μg/ml amphotericin B. • (b) Calcium Signal Studies on the FLIPR™
(§2) Cells were seeded at a density of 5×10^4 cells per well in Biocoat® Poly-D-lysine-coated black-wall, clear-bottom 96-well plates (Becton-Dickinson) and allowed to attach overnight in an incubator at 37° C. Cells were then washed two times with HBSS-HEPES buffer (Hanks Balanced Salt Solution without bicarbonate and phenol red, 20 mM HEPES, pH 7.4) using a Denley Cellwash plate washer (Labsystems). After 45 minutes of dye-loading in the dark, using the calcium-sensitive dye Fluo-4 AM at a final concentration of 2 μM, plates were washed four times with HBSS-HEPES buffer to remove excess dye leaving 100 μl in each well. Plates were re-equilibrated to 37° C. for a few minutes.
(§3) Cells were excited with an Argon laser at 488 nm, and emission was measured through a 510-570 nm bandwidth emission filter (FLIPR™, Molecular Devices, Sunnyvale, Calif.). Drug solution was added in a 50 μl volume to each well to give the desired final concentration. The peak increase in fluorescence intensity was recorded for each well. On each plate, four wells each served as negative (HBSS-HEPES buffer) and positive controls (standard agonists: BW245C (hDP); PGE2 (hEP1; hEP2/Gqs5; hEP3A/Gqi5; hEP4/Gqs5); PGF2α (hFP); carbacyclin (hIP); U-46619 (hTP), depending on receptor). The peak fluorescence change in each drug-containing well was then expressed relative to the controls.
(§4) Compounds were tested in a high-throughput (HTS) or concentration-response (CoRe) format. In the HTS format, forty-four compounds per plate were examined in duplicates at a concentration of 10^−5 M. To generate concentration-response curves, four compounds per plate were tested in duplicates in a concentration range between 10^−5 and 10^−11 M. The duplicate values were averaged. In either, HTS or CoRe format each compound was tested on at least 3 separate plates using cells from different passages to give an n≧3.

hEP1 = molecular target: T2, hEP1 (Homo sapiens, UniProt P34995); experiment: FLIPR calcium signal, hEP1; settings: for EC50: read-out: Other Receptors EC50 hEP1
T2 construct: expressed in transfected cells; host or cells: HEK-293(EBNA)
T2 sequence (P34995 1-402): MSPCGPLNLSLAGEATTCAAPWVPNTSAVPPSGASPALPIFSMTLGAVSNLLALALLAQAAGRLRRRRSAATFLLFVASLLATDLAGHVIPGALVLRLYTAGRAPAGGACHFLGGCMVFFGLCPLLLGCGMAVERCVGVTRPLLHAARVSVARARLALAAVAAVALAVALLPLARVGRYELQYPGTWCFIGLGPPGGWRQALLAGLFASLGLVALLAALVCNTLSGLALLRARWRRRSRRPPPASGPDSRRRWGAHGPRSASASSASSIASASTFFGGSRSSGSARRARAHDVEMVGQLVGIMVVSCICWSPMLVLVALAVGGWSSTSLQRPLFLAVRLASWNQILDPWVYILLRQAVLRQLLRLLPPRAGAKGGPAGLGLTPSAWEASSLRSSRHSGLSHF
Method: as §1, §2, §3, §4

hFP = molecular target: T3, hFP (Homo sapiens, UniProt P43088); experiment: FLIPR calcium signal, hFP; settings: Table 3, third part
T3 construct: expressed in transfected cells; host or cells: HEK-293(EBNA)
Method: as §1, §2, §3
Compounds were tested in a high-throughput (HTS) or concentration-response (CoRe) format. […]

hTP = molecular target: T4, hTP (Homo sapiens, UniProt P21731); experiment: FLIPR calcium signal, hTP
T4 construct: expressed in transfected cells; host or cells: HEK-293(EBNA)
T4 sequence (P21731 1-343): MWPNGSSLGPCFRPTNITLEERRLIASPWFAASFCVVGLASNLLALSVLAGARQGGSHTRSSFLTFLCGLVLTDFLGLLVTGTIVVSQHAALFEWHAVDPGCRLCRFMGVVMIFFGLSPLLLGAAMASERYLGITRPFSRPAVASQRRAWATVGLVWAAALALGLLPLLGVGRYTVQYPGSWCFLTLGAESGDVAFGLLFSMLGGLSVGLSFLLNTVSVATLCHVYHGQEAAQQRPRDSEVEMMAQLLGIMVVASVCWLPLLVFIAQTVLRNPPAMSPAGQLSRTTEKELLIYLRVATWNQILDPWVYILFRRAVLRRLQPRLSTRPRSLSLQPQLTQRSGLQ
Method in brief: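 HEK-293(EBNA) cells stably expressing the recombinant human receptor were loaded with 2 μM Fluo-4 AM for 45 min and read on FLIPR at 37° C in HBSS-HEPES pH 7.4. Peak fluorescence rise was expressed relative to buffer and standard agonist controls (BW245C, PGE2 or U-46619 by receptor); compounds were run 10^−5 to 10^−11 M in duplicate, n≧3.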

T1 sequence (P43119 whole entry): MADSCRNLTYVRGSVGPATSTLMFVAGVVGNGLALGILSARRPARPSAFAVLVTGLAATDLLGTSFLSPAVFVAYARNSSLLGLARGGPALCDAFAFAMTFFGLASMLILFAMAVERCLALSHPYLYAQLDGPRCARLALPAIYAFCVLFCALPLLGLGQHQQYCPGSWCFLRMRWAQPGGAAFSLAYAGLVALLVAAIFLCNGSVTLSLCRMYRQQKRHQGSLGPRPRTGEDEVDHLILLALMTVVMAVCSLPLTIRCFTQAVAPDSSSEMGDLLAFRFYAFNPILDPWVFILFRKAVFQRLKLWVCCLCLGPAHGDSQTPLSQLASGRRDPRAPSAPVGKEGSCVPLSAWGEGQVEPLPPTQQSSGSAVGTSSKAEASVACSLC
T3 sequence (P43088 whole entry): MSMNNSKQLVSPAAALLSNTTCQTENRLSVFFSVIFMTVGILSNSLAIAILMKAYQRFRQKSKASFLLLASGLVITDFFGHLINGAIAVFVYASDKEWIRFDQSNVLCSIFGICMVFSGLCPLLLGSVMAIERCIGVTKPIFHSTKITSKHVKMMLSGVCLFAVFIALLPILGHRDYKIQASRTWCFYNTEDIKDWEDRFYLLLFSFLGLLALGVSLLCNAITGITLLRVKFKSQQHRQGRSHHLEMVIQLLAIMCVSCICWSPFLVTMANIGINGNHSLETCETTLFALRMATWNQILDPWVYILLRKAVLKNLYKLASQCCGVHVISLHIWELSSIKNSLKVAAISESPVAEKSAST

SMILES: CC(C)(C)c1ccc(N2C(=O)CC[C@@H]2CCCCCCC(=O)O)cc1
EC50 (hEP1): > 10 µM

SMILES: CCCCCCC(O)c1ccc(N2C(=O)CC[C@@H]2CCCc2ccc(C(=O)O)s2)cc1 (single isomer, unassigned) [drawing 155]
EC50 (hEP1): 6.95 µM

SMILES: CCCCCC(C)c1ccc([C@@H]2[C@@H](C/C=C\CCCC(=O)O)[C@H](C#N)C[C@H]2C)cc1 (some centres unmarked)
Ca2+ Signal-EC50 (nM) FP (hFP): not active | Ca2+ Signal-EC50 (nM) EP1 (hEP1; Table 3, third part): not active | Ca2+ Signal-EC50 (nM) IP (hIP; Table 3, third part): not active | Ca2+ Signal-EC50 (nM) TP (hTP; Table 3, third part): not active

SMILES: CC(C)(C)c1ccc(N2C(=O)CC[C@@H]2COCc2ccc(C(=O)O)s2)cc1
EC50 (hEP1): > 10 µM | EC50 (hTP; read-out: Other Receptors EC50 hTP): > 10 µM

Further lines, results first:

EC50 (hIP): > 10 µM
SMILES: CCCCCCC(O)c1ccc(N2C(=O)CC[C@@H]2CCCc2ccc(C(=O)O)s2)cc1 (single isomer, unassigned) [drawing 156]

EC50 (hEP1): 6.95 µM
SMILES: CCCCCCC(O)c1ccc(N2C(=O)CC[C@@H]2CCCc2ccc(C(=O)O)s2)cc1 (single isomer, unassigned) [drawing 183]

EC50 (hIP): > 10 µM
SMILES: CCCCCCC(O)c1ccc(N2C(=O)CC[C@@H]2CCCc2ccc(C(=O)O)s2)cc1 (single isomer, unassigned) [drawing 184]
